Converted amounts (≈) assume the structure as drawn. Like-named read-outs stand apart in the source and are kept apart here. Values belong to the compound of their own block, whether it stands above or below them.
Experiment: Solubility of the drugs in aqueous media
Assay type: physicochemical

solubility (phosphate buffered saline, aqueous buffer, PBS, pH 6.5, read-out: solubility in phosphate buffered saline at pH 6.5 (PBS)): < 0.1 µg/mL
Compound: CCc1cc(Oc2cccc(N(Cc3cccc(OC(F)(F)C(F)F)c3)C[C@@H](O)C(F)(F)F)c2)ccc1Cl [Drug 1, (2R)-3-[[3-(4-chloro-3-ethylphenoxy)phenyl][[3-(1,1,2,2-tetrafluoroethoxy)phenyl]methyl]amino]-1,1,1-trifluoro-2-propanol]

solubility (model fasted duodenal (MFD) solution, fassgf or other biorelevant, MFD solution, read-out: solubility in model fasted duodenal (MFD) solution): ~11 µg/mL (≈ 18.4 µM)
Compound: CC[C@@H]1C[C@H](N(Cc2cc(C(F)(F)F)cc(C(F)(F)F)c2)C(C)=O)c2cc(C(F)(F)F)ccc2N1C(=O)OC(C)C [Drug 2, [2R,4S]4-[acetyl-(3,5-bis-trifluoromethyl-benzyl)-amino]-2-ethyl-6-trifluoromethyl-3,4-dihydro-2H-quinoline-1-carboxylic acid isopropyl ester]

solubility (water, read-out: solubility in water): < 0.1 µg/mL
Compound: CCOC(=O)N1c2ccc(C(F)(F)F)cc2[C@@H](N(Cc2cc(C(F)(F)F)cc(C(F)(F)F)c2)C(=O)OC)C[C@H]1CC [Drug 3, [2R,4S]4-[(3,5-bis-trifluoromethyl-benzyl)-methoxycarbonyl-amino]-2-ethyl-6-trifluoromethyl-3,4-dihydro-2H-quinoline-1-carboxylic acid ethyl ester, reference compound]

Reference: patent US8703204B2, “Nanoparticles comprising a cholesteryl ester transfer protein inhibitor and anon-ionizable polymer” (Bend Research, Inc., priority 2007, dated 2014)
